# In patent US7977284B2, “Non-estrogenic alkylphenol derivatives” (Oil Chem Technologies, Inc, priority 2009, dated 2011):
# What was measured:
# estrogenicity = settings: Jobling and Sumpter 1993; cited from earlier work
# [1] = test system: vitellogenin gene expression in trout hepatocytes; assay: Relative estrogenicity compared to estradiol; standard test procedure and stimulation of vitellogenin gene expression in trout hepatocytes; settings: for Relative Estrogenicity: compared to estradiol, assigned an estrogenicity value of unity; for estrogenicity (result in words): standard test procedure, vitellogenin gene expression in trout hepatocytes
Compound,times less estrogenic compared to Estradiol (estrogenicity),Relative Estrogenicity [1],estrogenicity (result in words) [1]
CC(C)(C)CC(C)(C)c1ccc(O)cc1 [4-t-octylphenol],"1,200 times",0.00037,relatively high estrogenicity
C[C@]12CC[C@@H]3c4ccc(O)cc4CC[C@H]3[C@@H]1CC[C@@H]2O [Estradiol],,1,
CC(C)(C)c1ccc(O)cc1 [4-t-butylphenol],"1,100 times",,
nonylphenol,"9,000 times",0.000111,relatively high estrogenicity
